# Results as given in ChEMBL document CHEMBL1201862, “PubChem BioAssay data set” (2004).
# The source made the active and inactive calls.
# Key:
# [1] = target: T1, G-protein coupled receptor 35 (Homo sapiens, UniProt Q9HC97); test: SAR Analysis for the identification of Selective Antagonists of ERK1/2 Activity in GPR35-Overexpressing U2OS Cells. [Related pubchem assays: 2079, 2058 ]; assay type: functional, cell-based
# [2] = target: T1, G-protein coupled receptor 35; test: GPR35 antagonists blocking zaprinast-driven arrestin recruitment, primary screen, imaging, U2OS, beta-arrestin-GFP, zaprinast agonist (AID 2058); assay type: functional;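 also: antagonist potency meaning inhibition of agonist-induced arrestin redistribution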
# [3] = target: Tyrosine-protein phosphatase non-receptor type 12 (Homo sapiens, UniProt Q05209); test: SAR Selectivity Analysis of small molecule inhibitors of PEST using pCAP in a fluorescence assay. [Related pubchem assays (depositor defined):AID1779, AID1784, AID2135]; assay type: functional
# [4] = target: T2, Tyrosine-protein phosphatase non-receptor type 22 (Homo sapiens, UniProt Q9Y2R2); test: LYP (PTPN22) phosphatase inhibitor potency, SAR follow-up, biochemical, pCAP fluorogenic substrate, fluorescence, set 3 (AID 449727); assay type: functional
# T2 sequence (Q9Y2R2 whole entry): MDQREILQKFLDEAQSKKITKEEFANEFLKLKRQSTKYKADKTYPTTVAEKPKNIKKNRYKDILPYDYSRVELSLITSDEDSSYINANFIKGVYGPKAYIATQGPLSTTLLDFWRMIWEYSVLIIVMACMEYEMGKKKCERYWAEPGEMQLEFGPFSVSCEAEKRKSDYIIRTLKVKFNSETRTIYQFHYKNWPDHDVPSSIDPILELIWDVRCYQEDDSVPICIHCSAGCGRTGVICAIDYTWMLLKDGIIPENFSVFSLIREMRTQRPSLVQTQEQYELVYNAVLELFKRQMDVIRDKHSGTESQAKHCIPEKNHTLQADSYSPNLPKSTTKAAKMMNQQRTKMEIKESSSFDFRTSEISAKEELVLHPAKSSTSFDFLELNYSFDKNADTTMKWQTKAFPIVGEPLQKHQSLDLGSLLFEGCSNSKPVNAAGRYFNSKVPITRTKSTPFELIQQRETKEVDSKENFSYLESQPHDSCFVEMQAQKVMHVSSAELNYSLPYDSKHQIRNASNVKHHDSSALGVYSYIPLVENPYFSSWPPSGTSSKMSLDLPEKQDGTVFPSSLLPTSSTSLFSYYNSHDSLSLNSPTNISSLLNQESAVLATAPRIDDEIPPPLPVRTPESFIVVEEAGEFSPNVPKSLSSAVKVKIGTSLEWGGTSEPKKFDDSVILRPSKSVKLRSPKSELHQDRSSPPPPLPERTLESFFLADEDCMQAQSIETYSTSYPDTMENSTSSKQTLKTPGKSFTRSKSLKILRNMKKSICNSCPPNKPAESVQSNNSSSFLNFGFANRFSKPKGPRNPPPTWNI
# [5] = target: T3, G-protein coupled receptor 55 (Homo sapiens, UniProt Q9Y2T6); test: GPR55 antagonists, SAR follow-up, counter-screen for GPR35 antagonist project, imaging, image-based (AID 2397); assay type: functional
# T3 sequence (Q9Y2T6 whole entry): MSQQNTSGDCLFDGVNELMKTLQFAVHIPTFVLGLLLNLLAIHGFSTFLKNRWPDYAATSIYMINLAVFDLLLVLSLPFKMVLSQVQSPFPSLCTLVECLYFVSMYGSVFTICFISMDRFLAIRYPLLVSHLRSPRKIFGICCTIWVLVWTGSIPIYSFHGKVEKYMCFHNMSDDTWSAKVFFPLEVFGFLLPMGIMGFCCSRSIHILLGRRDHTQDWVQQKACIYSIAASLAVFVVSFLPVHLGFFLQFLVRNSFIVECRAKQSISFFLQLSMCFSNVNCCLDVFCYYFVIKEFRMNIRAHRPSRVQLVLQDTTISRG
# [6] = target: T4, Tyrosine-protein phosphatase non-receptor type 7 (Homo sapiens, UniProt P35236); test: HePTP (PTPN7) phosphatase inhibitor potency, SAR follow-up, biochemical, set 2 (AID 449736); assay type: functional
# T4 sequence (P35236 whole entry): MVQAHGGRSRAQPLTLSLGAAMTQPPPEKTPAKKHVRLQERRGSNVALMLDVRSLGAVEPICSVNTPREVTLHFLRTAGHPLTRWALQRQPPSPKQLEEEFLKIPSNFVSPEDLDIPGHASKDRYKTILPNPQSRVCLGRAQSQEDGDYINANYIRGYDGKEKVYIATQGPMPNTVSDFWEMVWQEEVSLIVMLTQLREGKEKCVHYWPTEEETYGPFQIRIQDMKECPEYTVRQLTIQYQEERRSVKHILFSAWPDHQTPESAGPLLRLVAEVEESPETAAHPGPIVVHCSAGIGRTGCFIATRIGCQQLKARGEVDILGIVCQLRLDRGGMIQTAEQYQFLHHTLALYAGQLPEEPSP
# [7] = target: T2, Tyrosine-protein phosphatase non-receptor type 22; test: SAR LYP1 Fluorescent Assay using OMFP substrate for In Vitro dose response studies - Set 3. [Related pubchem assays (depositor defined):AID1779, AID1784, AID2140, AID2686]; assay type: functional
# Integrin alpha-4 = Integrin alpha-4 (Homo sapiens, UniProt P13612); test: VLA-4 integrin allosteric ligands, SAR follow-up, cell-based, LIBS antibody binding, flow cytometry (AID 488791); assay type: functional
# Sequence of Integrin alpha-4 (P13612 whole entry): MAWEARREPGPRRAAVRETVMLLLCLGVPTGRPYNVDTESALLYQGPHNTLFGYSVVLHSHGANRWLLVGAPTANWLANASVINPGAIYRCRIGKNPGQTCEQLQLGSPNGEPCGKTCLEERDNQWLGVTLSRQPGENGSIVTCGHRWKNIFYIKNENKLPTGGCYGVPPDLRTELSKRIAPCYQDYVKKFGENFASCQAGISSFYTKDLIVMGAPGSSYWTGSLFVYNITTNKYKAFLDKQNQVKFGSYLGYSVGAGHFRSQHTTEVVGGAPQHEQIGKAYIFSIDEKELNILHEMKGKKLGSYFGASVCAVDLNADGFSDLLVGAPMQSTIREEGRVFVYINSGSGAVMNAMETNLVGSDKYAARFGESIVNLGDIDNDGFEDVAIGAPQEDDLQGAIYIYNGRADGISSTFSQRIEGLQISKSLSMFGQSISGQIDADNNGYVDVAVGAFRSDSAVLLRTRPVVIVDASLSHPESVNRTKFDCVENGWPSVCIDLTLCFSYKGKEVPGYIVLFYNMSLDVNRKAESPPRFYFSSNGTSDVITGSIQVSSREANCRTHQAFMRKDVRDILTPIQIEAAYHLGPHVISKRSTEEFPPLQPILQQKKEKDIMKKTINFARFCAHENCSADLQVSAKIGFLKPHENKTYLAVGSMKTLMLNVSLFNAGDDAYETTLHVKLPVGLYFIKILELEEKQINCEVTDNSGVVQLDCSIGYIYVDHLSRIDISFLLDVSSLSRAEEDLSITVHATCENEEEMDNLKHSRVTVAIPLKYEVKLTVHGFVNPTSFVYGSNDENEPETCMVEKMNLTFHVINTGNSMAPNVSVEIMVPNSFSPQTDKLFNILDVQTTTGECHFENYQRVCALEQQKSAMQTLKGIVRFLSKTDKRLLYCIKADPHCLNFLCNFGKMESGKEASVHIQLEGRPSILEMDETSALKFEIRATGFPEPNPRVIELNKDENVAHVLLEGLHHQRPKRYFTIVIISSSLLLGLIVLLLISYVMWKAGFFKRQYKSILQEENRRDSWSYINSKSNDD
# [8] = target: T5, Short transient receptor potential channel 4 (Mus musculus, UniProt Q9QUQ5); test: TRPC4 positive allosteric modulators, dose response, cell-based, HEK293 TRPC4/mu-opioid, Fluo-4 calcium, EC20 DAMGO (AID 434941); assay type: functional
# T5 sequence (Q9QUQ5 whole entry): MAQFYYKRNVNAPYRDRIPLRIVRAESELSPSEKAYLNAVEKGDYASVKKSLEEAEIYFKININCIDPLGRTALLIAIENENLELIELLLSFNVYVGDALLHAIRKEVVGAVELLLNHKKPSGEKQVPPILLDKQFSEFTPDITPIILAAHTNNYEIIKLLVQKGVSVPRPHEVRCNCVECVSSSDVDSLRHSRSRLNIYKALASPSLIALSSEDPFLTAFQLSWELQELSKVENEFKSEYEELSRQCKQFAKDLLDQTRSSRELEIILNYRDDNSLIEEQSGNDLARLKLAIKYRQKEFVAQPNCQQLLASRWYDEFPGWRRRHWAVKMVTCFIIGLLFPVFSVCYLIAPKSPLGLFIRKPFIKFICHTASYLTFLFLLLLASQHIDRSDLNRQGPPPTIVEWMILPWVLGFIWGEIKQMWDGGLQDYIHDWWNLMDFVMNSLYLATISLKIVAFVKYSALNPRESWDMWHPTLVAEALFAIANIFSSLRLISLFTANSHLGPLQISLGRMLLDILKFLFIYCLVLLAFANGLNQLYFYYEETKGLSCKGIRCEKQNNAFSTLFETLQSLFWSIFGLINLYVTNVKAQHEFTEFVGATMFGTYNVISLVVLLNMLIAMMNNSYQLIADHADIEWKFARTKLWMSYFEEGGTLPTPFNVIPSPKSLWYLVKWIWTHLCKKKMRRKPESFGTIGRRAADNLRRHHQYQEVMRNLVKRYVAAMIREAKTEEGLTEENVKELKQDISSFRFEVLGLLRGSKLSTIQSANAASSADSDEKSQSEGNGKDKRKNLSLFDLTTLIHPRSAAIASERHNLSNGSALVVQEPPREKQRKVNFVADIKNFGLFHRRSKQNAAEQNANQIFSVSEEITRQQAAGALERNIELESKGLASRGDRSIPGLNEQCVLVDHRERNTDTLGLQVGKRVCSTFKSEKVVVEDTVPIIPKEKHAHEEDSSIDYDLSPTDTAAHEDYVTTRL
# [9] = target: Alkaline phosphatase, placental type (Homo sapiens, UniProt P05187); test: PLAP enzyme inhibitors, confirmation, biochemical, luminescence (AID 1512); assay type: functional
# [10] = target: Glyceraldehyde-3-phosphate dehydrogenase (Homo sapiens, UniProt P04406)
# Sequence of Glyceraldehyde-3-phosphate dehydrogenase (P04406 whole entry): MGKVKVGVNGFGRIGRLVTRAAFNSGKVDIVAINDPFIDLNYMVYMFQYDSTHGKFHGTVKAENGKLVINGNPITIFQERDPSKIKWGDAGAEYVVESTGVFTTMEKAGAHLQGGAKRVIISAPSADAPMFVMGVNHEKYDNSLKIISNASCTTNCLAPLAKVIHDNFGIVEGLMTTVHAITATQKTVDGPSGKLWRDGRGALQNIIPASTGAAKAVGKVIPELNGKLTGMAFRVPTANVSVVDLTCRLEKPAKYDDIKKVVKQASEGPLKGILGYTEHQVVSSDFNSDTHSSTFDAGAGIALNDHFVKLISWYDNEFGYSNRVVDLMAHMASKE
# [11] = target: T6, Alkaline phosphatase, tissue-nonspecific isozyme (Homo sapiens, UniProt P05186); test: human TNAP enzyme inhibitors, SAR follow-up, biochemical, luminescent, dose response (AID 1056)
# T6 sequence (P05186 whole entry): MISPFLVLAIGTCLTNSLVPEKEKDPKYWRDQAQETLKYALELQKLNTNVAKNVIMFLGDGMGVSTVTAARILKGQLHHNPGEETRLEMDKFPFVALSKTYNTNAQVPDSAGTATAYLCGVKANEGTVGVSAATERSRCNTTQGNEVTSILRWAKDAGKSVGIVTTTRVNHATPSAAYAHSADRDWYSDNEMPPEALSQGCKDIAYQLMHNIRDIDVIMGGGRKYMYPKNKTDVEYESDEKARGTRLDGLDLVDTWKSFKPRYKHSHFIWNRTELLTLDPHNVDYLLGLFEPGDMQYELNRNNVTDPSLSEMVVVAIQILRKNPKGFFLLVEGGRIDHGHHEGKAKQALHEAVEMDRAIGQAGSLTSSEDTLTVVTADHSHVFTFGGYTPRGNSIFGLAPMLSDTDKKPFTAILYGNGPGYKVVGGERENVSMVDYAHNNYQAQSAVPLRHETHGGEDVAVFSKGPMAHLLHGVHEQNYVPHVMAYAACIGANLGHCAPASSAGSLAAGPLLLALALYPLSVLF
# [12] = target: T3, G-protein coupled receptor 55; test: GPR55 antagonists blocking LPI-driven arrestin recruitment, primary screen, imaging, U2OS, beta-arrestin-GFP, LPI agonist (AID 2013); assay type: functional;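 also: antagonist potency measured as reduced agonist-driven arrestin aggregation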
# [13] = HEp-2 cell cytotoxicity, dose response, cytotoxicity control for RSV inhibitor project, HTS (AID 2410); assay type: functional; conditions: human respiratory syncytial virus
# [14] = growth suppression of beta-catenin-knockout colon cells, dose response, cell-based, HCT116, human colon tumor (AID 1045); assay type: functional;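 also: HCT116 colon tumor cells with beta catenin knocked out; cells exposed to compound for 60 hours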
# [15] = growth suppression of PTEN-null colon cells, dose response, cell-based, HCT116 PTEN knockout (AID 1047); assay type: functional;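 also: HCT116 colon tumor cells with PTEN knocked out; cells exposed to compound for 60 hours before readout; potency for loss of cell viability measured by luminescence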
# [16] = target: DNA damage-inducible transcript 3 protein (Mus musculus, UniProt P35639); assay type: functional, Cricetulus griseus
# [17] = target: T7, Small ubiquitin-related modifier 1 (Homo sapiens, UniProt P63165); test: inhibitors of SUMO1 partner interactions, dose response, biochemical, FRET (AID 624383); assay type: functional; conditions: read-out: IC50_Mean
# T7 sequence (P63165 whole entry): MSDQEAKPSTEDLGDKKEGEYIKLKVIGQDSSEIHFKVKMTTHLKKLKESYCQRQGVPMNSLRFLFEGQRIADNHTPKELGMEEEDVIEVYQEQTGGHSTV
# [18] = target: Induced myeloid leukemia cell differentiation protein Mcl-1 (Homo sapiens, UniProt Q07820); assay type: functional
# [19] = target: T7, Small ubiquitin-related modifier 1; test: inhibitors of SUMO1 peptide binding, dose response, biochemical, fluorescence polarization, uHTS hits (AID 624382); assay type: functional; conditions: read-out: IC50_Mean
# cells = assay type: functional
# [20] = Vero E6 cell cytotoxicity, dose response, cytotoxicity control for non-replicating M. tuberculosis project, secondary assay (AID 492998); assay type: functional, VeroE6; conditions: Vero C1008
# [21] = THP-1 cell cytotoxicity, dose response, cytotoxicity control for non-replicating M. tuberculosis project (AID 489025); assay type: functional
# Troponin, cardiac muscle = Troponin, cardiac muscle (Homo sapiens, UniProt P19429+P45379+P63316); test: Fluorescence-based biochemical high throughput dose response assay for activators of the calcium sensitivity of cardiac Regulated Thin Filaments (RTF). [Related pubchem assays (depositor defined):AID493008, AID493018, AID504382, AID504383]; assay type: protein-complex assay
# [22] = target: Neuropeptides B/W receptor type 1 (Homo sapiens, UniProt P48145); test: GPR7 antagonist potency, late-stage follow-up, cell-based, fluorescence, dose response (AID 463251); assay type: functional
# [23] = target: Melanin-concentrating hormone receptor 1 (Homo sapiens, UniProt Q99705); test: Late-stage fluorescence-based counterscreen for antagonists of the G-protein coupled receptor 7 (GPR7): cell-based dose response assay to identify antagonists of the melanin-concentrating hormone receptor 1 (MCHR1). [Related pubchem assays (depositor defined):AID1861, AID1880, AID1952, AID2148, AID2251, AID2257, AID485339]; assay type: functional;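 also: stimulated with 30 nM MCH peptide agonist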
# Sequence of Melanin-concentrating hormone receptor 1 (Q99705 whole entry): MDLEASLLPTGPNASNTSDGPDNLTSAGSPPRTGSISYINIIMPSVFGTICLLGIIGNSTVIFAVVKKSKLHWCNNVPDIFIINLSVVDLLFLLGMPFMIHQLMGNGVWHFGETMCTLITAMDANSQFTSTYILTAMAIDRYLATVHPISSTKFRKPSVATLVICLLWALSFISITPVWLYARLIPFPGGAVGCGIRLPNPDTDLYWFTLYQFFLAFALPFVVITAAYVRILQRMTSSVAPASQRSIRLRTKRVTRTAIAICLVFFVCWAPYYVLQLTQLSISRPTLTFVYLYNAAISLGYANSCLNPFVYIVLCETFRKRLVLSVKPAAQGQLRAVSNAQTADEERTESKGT
# [24] = target: Kappa-type opioid receptor (Homo sapiens, UniProt P41145); test: SAR analysis of small molecule agonists of the kappa opioid receptor via a luminescent beta-arrestin assay - Set 2. [Related pubchem assays (depositor defined):AID1777, AID1785, AID1786, AID1966, AID2133, AID2136, AID2284, AID449737]; assay type: functional
# Sequence of Kappa-type opioid receptor (P41145 whole entry): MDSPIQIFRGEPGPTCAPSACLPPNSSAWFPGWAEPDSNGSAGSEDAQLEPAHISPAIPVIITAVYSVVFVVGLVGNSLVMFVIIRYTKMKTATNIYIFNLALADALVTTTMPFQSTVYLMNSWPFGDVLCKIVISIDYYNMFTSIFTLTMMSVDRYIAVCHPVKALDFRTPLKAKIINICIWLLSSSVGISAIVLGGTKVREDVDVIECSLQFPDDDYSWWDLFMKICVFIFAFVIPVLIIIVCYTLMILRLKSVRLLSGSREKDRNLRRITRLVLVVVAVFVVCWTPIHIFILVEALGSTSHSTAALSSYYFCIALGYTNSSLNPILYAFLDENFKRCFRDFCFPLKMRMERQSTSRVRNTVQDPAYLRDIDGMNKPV
# Cytochrome P450 2C19 = Cytochrome P450 2C19 (Homo sapiens, UniProt P33261); test: Cytochrome panel assay with activity outcomes. Panel member name: p450-cyp2c19 Compounds with AC50 equal or less than 10 uM are considered active; assay type: functional; conditions: read-out: AC50
# Sequence of Cytochrome P450 2C19 (P33261 whole entry): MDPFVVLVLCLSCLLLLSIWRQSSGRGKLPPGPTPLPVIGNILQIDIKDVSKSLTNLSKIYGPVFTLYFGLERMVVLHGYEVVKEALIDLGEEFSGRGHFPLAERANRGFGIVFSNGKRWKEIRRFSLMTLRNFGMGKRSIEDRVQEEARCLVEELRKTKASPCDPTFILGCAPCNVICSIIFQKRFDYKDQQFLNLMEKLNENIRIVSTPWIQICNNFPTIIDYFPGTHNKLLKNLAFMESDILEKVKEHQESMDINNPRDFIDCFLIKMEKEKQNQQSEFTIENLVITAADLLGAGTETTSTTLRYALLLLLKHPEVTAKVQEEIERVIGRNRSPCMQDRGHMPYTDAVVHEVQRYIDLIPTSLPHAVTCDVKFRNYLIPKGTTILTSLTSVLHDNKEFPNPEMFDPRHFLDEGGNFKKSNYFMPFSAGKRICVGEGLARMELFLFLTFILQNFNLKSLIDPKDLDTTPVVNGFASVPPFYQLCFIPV
# Cytochrome P450 3A4 [25] = target: T8, Cytochrome P450 3A4 (Homo sapiens, UniProt P08684)
# T8 sequence (P08684 whole entry, the tested form may be a part): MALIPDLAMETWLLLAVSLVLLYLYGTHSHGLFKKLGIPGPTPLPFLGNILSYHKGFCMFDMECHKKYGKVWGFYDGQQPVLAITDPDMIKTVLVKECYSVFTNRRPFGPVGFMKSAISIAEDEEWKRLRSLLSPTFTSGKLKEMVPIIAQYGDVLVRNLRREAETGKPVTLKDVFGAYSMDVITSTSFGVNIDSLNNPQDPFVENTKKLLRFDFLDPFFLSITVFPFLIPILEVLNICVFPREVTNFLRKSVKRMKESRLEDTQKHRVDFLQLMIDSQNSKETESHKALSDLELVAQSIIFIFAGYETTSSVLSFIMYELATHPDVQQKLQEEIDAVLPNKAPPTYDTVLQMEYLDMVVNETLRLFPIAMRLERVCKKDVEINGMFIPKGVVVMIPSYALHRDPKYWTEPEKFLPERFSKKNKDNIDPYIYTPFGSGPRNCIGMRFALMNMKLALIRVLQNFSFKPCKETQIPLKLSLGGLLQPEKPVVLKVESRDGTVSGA
# [26] = target: Type-1 angiotensin II receptor (Homo sapiens, UniProt P30556); test: AT1 receptor agonists, dose response, selectivity assay for APJ receptor agonist project, cell-based, uHTS hits (AID 488865); assay type: functional;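 also: beta-arrestin recruitment to AT1 measured by enzyme fragment complementation luminescence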
# Cytochrome P450 3A4 [27] = target: T8, Cytochrome P450 3A4; conditions: Potency
# [28] = target: E3 ubiquitin-protein ligase Mdm2/Protein Mdm4 (Homo sapiens, UniProt O15151+Q00987); test: Mdm2-MdmX interaction inhibitors, dose response, luminescence detection (AID 504593); assay type: functional
# Sequence of E3 ubiquitin-protein ligase Mdm2/Protein Mdm4 (Q00987 whole entry): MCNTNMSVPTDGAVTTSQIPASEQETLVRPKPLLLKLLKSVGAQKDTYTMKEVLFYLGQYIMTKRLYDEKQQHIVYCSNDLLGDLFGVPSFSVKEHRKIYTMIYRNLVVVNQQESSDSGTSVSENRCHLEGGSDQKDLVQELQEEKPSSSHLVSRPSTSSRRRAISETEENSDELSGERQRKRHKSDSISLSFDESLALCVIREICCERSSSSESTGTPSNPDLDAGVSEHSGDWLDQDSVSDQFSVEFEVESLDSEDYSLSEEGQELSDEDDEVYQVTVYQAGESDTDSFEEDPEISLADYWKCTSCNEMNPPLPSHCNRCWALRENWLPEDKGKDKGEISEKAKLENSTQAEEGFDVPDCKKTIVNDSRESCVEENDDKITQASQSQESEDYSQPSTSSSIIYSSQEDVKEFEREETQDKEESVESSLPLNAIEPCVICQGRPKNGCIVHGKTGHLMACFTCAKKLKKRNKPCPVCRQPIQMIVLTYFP
# Sequence of E3 ubiquitin-protein ligase Mdm2/Protein Mdm4 (O15151 whole entry): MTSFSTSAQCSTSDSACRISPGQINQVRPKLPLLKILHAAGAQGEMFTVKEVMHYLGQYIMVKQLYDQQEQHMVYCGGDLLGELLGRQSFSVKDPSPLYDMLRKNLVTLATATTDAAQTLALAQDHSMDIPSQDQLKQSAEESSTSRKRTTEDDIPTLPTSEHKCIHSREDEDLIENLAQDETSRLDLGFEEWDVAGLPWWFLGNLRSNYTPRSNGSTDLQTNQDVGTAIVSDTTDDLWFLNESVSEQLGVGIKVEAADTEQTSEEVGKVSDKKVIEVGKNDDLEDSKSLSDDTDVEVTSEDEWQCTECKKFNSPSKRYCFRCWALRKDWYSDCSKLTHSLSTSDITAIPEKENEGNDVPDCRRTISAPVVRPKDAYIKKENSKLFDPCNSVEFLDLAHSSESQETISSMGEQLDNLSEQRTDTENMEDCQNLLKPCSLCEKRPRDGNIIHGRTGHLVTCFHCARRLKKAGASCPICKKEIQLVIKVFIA
# T1 sequence (Q9HC97 whole entry): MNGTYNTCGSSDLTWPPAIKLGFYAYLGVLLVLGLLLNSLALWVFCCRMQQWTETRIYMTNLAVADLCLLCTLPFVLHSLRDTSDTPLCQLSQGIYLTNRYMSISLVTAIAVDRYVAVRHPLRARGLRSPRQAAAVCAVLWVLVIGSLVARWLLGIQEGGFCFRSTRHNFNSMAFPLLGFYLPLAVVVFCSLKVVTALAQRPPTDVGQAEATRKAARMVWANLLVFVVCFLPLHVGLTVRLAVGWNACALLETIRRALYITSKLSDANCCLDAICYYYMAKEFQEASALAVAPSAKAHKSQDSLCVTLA
compound,measurement,setting,value
COc1cccc(/C=C2\SC(=S)N(CCCC(=O)Nc3ccc(C(=O)O)cc3)C2=O)c1,IC50,[1],0.691 µM (active)
same,IC50,[2],< 0.5 µM (active)
same,IC50,[3],32.3 µM (active)
same,IC50,[4],> 100 µM (inactive)
same,IC50,[5],> 32 µM (inactive)
same,IC50,[6],8.56 µM (active)
same,IC50,[7],> 100 µM (inactive)
Cc1ccc(NC(=O)c2cc(N3C(=O)CCC3=O)ccc2N2CCOCC2)cc1,EC50,Integrin alpha-4,16.4 µM (active)
Cc1cc(OCC(=O)NC2CCCCC2)ccc1Cl,EC50,[8],1.88 µM (active)
COc1ccccc1-c1nc(SCc2ccccc2F)n[nH]1,IC50,[9],> 100 µM (inactive)
same,IC50,[10],> 100 µM (not active)
same,IC50,[11],3.41 µM (active)
COc1ccc(-c2sc(Nc3ccccc3)n[n+]2-c2ccc(F)cc2)c(C)c1C,IC50,[12],2.11 µM (active)
same,CC50,[13],28.5 µM (active)
Fc1cc(F)c2nc(Nc3nc4cc5c(cc4s3)OCO5)sc2c1,EC50,[14],17.3 µM (active)
same,EC50,[15],18.6 µM (active)
same,Absolute IC50 (CHOP),[16],10 µM
same,IC50,[17],1.53 µM (active)
same,IC50,[18],1.12 µM (active)
same,IC50,[19],> 66.6 µM (inactive)
O=c1c2ccccc2nc2cc(O)c(-c3ccccc3)nn12,IC50,cells,4.34 µM (active)
same,CC50,[20],15.4 µM (active)
same,CC50,[21],> 40 µM (active)
O=C(COC(=O)c1ccc(O)cc1)Nc1ccc2c(c1)OCCO2,EC50,"Troponin, cardiac muscle",> 71.5 µM (inactive)
CC(C)c1ccc(-n2ncc(Cl)c(Oc3ccc(N)cc3)c2=O)cc1,IC50,[22],2.5 µM (active)
same,IC50,[23],7 µM (active)
O=C(CN(Cc1cccs1)C(=O)c1ccccn1)NC1CCCCCC1,EC50,[24],> 20 µM (inactive)
Clc1ccccc1CSc1nnc(-c2ccncc2)o1,AC50,Cytochrome P450 2C19,0.126 µM (inconclusive)
same,AC50,Cytochrome P450 3A4 [25],20 µM (inconclusive)
same,EC50,[26],> 100 µM (inactive)
CC(C)c1cccc(=O)c(O)c1 [HINOKITIOL],AC50,Cytochrome P450 3A4 [27],0.631 µM (inconclusive)
same,IC50,[28],3.58 µM (active)
